Article PMC6009956, “Design, synthesis and biological activity of N^4-phenylsubstituted-7H-pyrrolo[2,3-d]pyrimidin-4-amines as dual inhibitors of aurora kinase A and epidermal growth factor receptor kinase” (Journal of Enzyme Inhibition and Medicinal Chemistry, 2017)
Read-outs that look alike come from different tables or passages of the source. Values belong to the compound of their own block, whether it stands above or below them.

What was measured:
EGFR = EGFR (Homo sapiens, UniProt P00533); assay: ADP-Glo kinase assay, EGFR; type: biochemical; set-up: purchased BPS Bioscience (assay run externally by the vendor)
EGFR, sequence (P00533 25-1210): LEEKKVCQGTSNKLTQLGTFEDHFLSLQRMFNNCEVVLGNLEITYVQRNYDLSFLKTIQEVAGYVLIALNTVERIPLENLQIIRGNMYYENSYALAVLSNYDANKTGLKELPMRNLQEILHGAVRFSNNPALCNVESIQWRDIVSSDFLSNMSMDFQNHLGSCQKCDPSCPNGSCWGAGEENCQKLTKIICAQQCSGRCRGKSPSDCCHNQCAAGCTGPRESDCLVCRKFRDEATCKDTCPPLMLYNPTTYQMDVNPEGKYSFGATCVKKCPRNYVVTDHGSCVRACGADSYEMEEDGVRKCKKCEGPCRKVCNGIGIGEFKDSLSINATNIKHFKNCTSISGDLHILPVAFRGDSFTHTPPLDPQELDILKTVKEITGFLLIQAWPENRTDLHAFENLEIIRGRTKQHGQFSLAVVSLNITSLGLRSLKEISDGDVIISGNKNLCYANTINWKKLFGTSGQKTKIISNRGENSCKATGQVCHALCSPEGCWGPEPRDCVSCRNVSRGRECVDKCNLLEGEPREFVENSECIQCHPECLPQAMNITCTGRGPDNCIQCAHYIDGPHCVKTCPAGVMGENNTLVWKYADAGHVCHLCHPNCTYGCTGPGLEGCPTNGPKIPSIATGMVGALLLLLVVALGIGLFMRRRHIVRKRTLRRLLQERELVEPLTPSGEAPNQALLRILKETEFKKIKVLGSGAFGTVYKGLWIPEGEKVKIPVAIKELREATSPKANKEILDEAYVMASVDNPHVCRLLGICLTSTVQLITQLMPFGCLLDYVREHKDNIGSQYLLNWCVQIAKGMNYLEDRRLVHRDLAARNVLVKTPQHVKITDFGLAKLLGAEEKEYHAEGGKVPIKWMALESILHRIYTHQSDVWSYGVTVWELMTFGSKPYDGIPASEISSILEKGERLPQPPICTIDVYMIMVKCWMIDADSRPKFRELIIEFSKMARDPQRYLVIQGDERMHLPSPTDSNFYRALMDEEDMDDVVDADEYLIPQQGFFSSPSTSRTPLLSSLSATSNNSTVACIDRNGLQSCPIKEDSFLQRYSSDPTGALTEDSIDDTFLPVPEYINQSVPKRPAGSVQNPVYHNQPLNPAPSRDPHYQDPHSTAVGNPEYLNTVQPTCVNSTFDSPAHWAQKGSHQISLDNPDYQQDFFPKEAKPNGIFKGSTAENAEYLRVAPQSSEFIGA

aurora A kinase (AURKA) = biological target: T1, aurora A kinase (AURKA) (Homo sapiens, UniProt O14965); assay: ADP-Glo kinase assay, Aurora A; type: biochemical
T1 construct: purchased BPS Bioscience (assay run externally by the vendor)
T1 sequence (O14965 1-403): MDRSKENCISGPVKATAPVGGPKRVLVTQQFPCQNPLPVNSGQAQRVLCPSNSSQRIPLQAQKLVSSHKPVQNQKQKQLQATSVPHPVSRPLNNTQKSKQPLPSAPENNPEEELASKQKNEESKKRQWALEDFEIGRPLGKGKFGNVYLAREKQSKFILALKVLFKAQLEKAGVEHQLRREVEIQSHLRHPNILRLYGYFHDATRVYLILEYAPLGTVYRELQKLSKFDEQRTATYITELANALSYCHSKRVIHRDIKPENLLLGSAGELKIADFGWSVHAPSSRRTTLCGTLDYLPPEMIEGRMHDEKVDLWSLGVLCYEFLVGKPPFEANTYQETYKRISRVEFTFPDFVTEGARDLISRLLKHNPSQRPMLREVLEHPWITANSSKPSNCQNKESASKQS

[1] = 10 µM ATP, triplicate, read-out: EGFR IC50 ± SD
[2] = 10 µM ATP/0.2 mg/ml Poly-Glu-Tyr, read-out: EGFR IC50 (dose-response curve, supplement)
[3] = 10 µM ATP, triplicate, read-out: AURKA IC50 ± SD
[4] = 10 µM ATP/0.2 mg/ml Kemptide, read-out: Aurora A IC50 (dose-response curve, supplement)

- IC50 (EGFR; [1]): 254 ± 26 nM
- IC50 (EGFR; [2]): 253 nM
- EGFR % Activity Set1 (EGFR; Log[nM] 0): 103%
- EGFR % Activity Set2 (EGFR; Log[nM] 0): 98%
- EGFR % Activity Set3 (EGFR; Log[nM] 0): 103%
- EGFR % Activity Set1 (EGFR; Log[nM] 1.0): 101%
- EGFR % Activity Set2 (EGFR; Log[nM] 1.0): 110%
- EGFR % Activity Set3 (EGFR; Log[nM] 1.0): 106%
- EGFR % Activity Set1 (EGFR; Log[nM] 1.5): 92%
- EGFR % Activity Set2 (EGFR; Log[nM] 1.5): 91%
- EGFR % Activity Set3 (EGFR; Log[nM] 1.5): 94%
- EGFR % Activity Set1 (EGFR; Log[nM] 2.0): 66%
- EGFR % Activity Set2 (EGFR; Log[nM] 2.0): 71%
- EGFR % Activity Set3 (EGFR; Log[nM] 2.0): 76%
- EGFR % Activity Set1 (EGFR; Log[nM] 2.5): 39%
- EGFR % Activity Set2 (EGFR; Log[nM] 2.5): 42%
- EGFR % Activity Set3 (EGFR; Log[nM] 2.5): 40%
- EGFR % Activity Set1 (EGFR; Log[nM] 3.0): 24%
- EGFR % Activity Set2 (EGFR; Log[nM] 3.0): 22%
- EGFR % Activity Set3 (EGFR; Log[nM] 3.0): 22%
- EGFR % Activity Set1 (EGFR; Log[nM] 3.5): 9%
- EGFR % Activity Set2 (EGFR; Log[nM] 3.5): 9%
- EGFR % Activity Set3 (EGFR; Log[nM] 3.5): 9%
- EGFR % Activity Set1 (EGFR; Log[nM] 4.0): 4%
- EGFR % Activity Set2 (EGFR; Log[nM] 4.0): 5%
- EGFR % Activity Set3 (EGFR; Log[nM] 4.0): 5%
- EGFR % Activity Set1 (EGFR; Log[nM] 4.5): 2%
- EGFR % Activity Set2 (EGFR; Log[nM] 4.5): 2%
- EGFR % Activity Set3 (EGFR; Log[nM] 4.5): 2%
- EGFR % Activity Set1 (EGFR; Log[nM] 5.0): 1%
- EGFR % Activity Set2 (EGFR; Log[nM] 5.0): 1%
- EGFR % Activity Set3 (EGFR; Log[nM] 5.0): 1%
- IC50 (aurora A kinase (AURKA); [3]): 5580 ± 660 nM
- IC50 (aurora A kinase (AURKA); [4]): 5600 nM
- Aurora A % Activity Set1 (aurora A kinase (AURKA); Log[nM] 0): 91%
- Aurora A % Activity Set2 (aurora A kinase (AURKA); Log[nM] 0): 91%
- Aurora A % Activity Set3 (aurora A kinase (AURKA); Log[nM] 0): 92%
- Aurora A % Activity Set1 (aurora A kinase (AURKA); Log[nM] 1.0): 87%
- Aurora A % Activity Set2 (aurora A kinase (AURKA); Log[nM] 1.0): 90%
- Aurora A % Activity Set3 (aurora A kinase (AURKA); Log[nM] 1.0): 91%
- Aurora A % Activity Set1 (aurora A kinase (AURKA); Log[nM] 1.5): 93%
- Aurora A % Activity Set2 (aurora A kinase (AURKA); Log[nM] 1.5): 98%
- Aurora A % Activity Set3 (aurora A kinase (AURKA); Log[nM] 1.5): 100%
- Aurora A % Activity Set1 (aurora A kinase (AURKA); Log[nM] 2.0): 96%
- Aurora A % Activity Set2 (aurora A kinase (AURKA); Log[nM] 2.0): 97%
- Aurora A % Activity Set3 (aurora A kinase (AURKA); Log[nM] 2.0): 100%
- Aurora A % Activity Set1 (aurora A kinase (AURKA); Log[nM] 2.5): 99%
- Aurora A % Activity Set2 (aurora A kinase (AURKA); Log[nM] 2.5): 103%
- Aurora A % Activity Set3 (aurora A kinase (AURKA); Log[nM] 2.5): 104%
- Aurora A % Activity Set1 (aurora A kinase (AURKA); Log[nM] 3.0): 86%
- Aurora A % Activity Set2 (aurora A kinase (AURKA); Log[nM] 3.0): 90%
- Aurora A % Activity Set3 (aurora A kinase (AURKA); Log[nM] 3.0): 93%
- Aurora A % Activity Set1 (aurora A kinase (AURKA); Log[nM] 3.5): 63%
- Aurora A % Activity Set2 (aurora A kinase (AURKA); Log[nM] 3.5): 70%
- Aurora A % Activity Set3 (aurora A kinase (AURKA); Log[nM] 3.5): 70%
- Aurora A % Activity Set1 (aurora A kinase (AURKA); Log[nM] 4.0): 28%
- Aurora A % Activity Set2 (aurora A kinase (AURKA); Log[nM] 4.0): 31%
- Aurora A % Activity Set3 (aurora A kinase (AURKA); Log[nM] 4.0): 32%
- Aurora A % Activity Set1 (aurora A kinase (AURKA); Log[nM] 4.5): 11%
- Aurora A % Activity Set2 (aurora A kinase (AURKA); Log[nM] 4.5): 12%
- Aurora A % Activity Set3 (aurora A kinase (AURKA); Log[nM] 4.5): 13%
- Aurora A % Activity Set1 (aurora A kinase (AURKA); Log[nM] 5.0): 5%
- Aurora A % Activity Set2 (aurora A kinase (AURKA); Log[nM] 5.0): 5%
- Aurora A % Activity Set3 (aurora A kinase (AURKA); Log[nM] 5.0): 5%
SMILES: c1ccc(Nc2ncnc3[nH]ccc23)cc1 [Compound 1, N^4-phenyl-7H-pyrrolo[2,3-d]pyrimidine-4-amine]

- EGFR inhibition (in words) (EGFR): single-digit nanomolar EGFR inhibition
- IC50 (EGFR; [1]): 5.98 ± 0.61 nM
- IC50 (EGFR; [2]): 5.9 nM
- EGFR % Activity Set1 (EGFR; Log[nM] 0): 57%
- EGFR % Activity Set2 (EGFR; Log[nM] 0): 58%
- EGFR % Activity Set3 (EGFR; Log[nM] 0): 56%
- EGFR % Activity Set1 (EGFR; Log[nM] 1.0): 38%
- EGFR % Activity Set2 (EGFR; Log[nM] 1.0): 37%
- EGFR % Activity Set3 (EGFR; Log[nM] 1.0): 40%
- EGFR % Activity Set1 (EGFR; Log[nM] 1.5): 13%
- EGFR % Activity Set2 (EGFR; Log[nM] 1.5): 16%
- EGFR % Activity Set3 (EGFR; Log[nM] 1.5): 16%
- EGFR % Activity Set1 (EGFR; Log[nM] 2.0): 7%
- EGFR % Activity Set2 (EGFR; Log[nM] 2.0): 7%
- EGFR % Activity Set3 (EGFR; Log[nM] 2.0): 8%
- EGFR % Activity Set1 (EGFR; Log[nM] 2.5): 2%
- EGFR % Activity Set2 (EGFR; Log[nM] 2.5): 4%
- EGFR % Activity Set3 (EGFR; Log[nM] 2.5): 3%
- EGFR % Activity Set1 (EGFR; Log[nM] 3.0): 1%
- EGFR % Activity Set2 (EGFR; Log[nM] 3.0): 1%
- EGFR % Activity Set3 (EGFR; Log[nM] 3.0): 2%
- EGFR % Activity Set1 (EGFR; Log[nM] 3.5): 0%
- EGFR % Activity Set2 (EGFR; Log[nM] 3.5): 1%
- EGFR % Activity Set3 (EGFR; Log[nM] 3.5): 0%
- EGFR % Activity Set1 (EGFR; Log[nM] 4.0): 0%
- EGFR % Activity Set2 (EGFR; Log[nM] 4.0): 0%
- EGFR % Activity Set3 (EGFR; Log[nM] 4.0): 0%
- EGFR % Activity Set1 (EGFR; Log[nM] 4.5): 0%
- EGFR % Activity Set2 (EGFR; Log[nM] 4.5): 0%
- EGFR % Activity Set3 (EGFR; Log[nM] 4.5): 0%
- EGFR % Activity Set1 (EGFR; Log[nM] 5.0): 0%
- EGFR % Activity Set2 (EGFR; Log[nM] 5.0): 0%
- EGFR % Activity Set3 (EGFR; Log[nM] 5.0): 0%
- IC50 (aurora A kinase (AURKA); [3]): 3290 ± 150 nM
- IC50 (aurora A kinase (AURKA); [4]): 3300 nM
- Aurora A % Activity Set1 (aurora A kinase (AURKA); Log[nM] 0): 95%
- Aurora A % Activity Set2 (aurora A kinase (AURKA); Log[nM] 0): 93%
- Aurora A % Activity Set3 (aurora A kinase (AURKA); Log[nM] 0): 100%
- Aurora A % Activity Set1 (aurora A kinase (AURKA); Log[nM] 1.0): 99%
- Aurora A % Activity Set2 (aurora A kinase (AURKA); Log[nM] 1.0): 96%
- Aurora A % Activity Set3 (aurora A kinase (AURKA); Log[nM] 1.0): 101%
- Aurora A % Activity Set1 (aurora A kinase (AURKA); Log[nM] 1.5): 99%
- Aurora A % Activity Set2 (aurora A kinase (AURKA); Log[nM] 1.5): 94%
- Aurora A % Activity Set3 (aurora A kinase (AURKA); Log[nM] 1.5): 105%
- Aurora A % Activity Set1 (aurora A kinase (AURKA); Log[nM] 2.0): 105%
- Aurora A % Activity Set2 (aurora A kinase (AURKA); Log[nM] 2.0): 104%
- Aurora A % Activity Set3 (aurora A kinase (AURKA); Log[nM] 2.0): 107%
- Aurora A % Activity Set1 (aurora A kinase (AURKA); Log[nM] 2.5): 104%
- Aurora A % Activity Set2 (aurora A kinase (AURKA); Log[nM] 2.5): 105%
- Aurora A % Activity Set3 (aurora A kinase (AURKA); Log[nM] 2.5): 103%
- Aurora A % Activity Set1 (aurora A kinase (AURKA); Log[nM] 3.0): 78%
- Aurora A % Activity Set2 (aurora A kinase (AURKA); Log[nM] 3.0): 75%
- Aurora A % Activity Set3 (aurora A kinase (AURKA); Log[nM] 3.0): 77%
- Aurora A % Activity Set1 (aurora A kinase (AURKA); Log[nM] 3.5): 53%
- Aurora A % Activity Set2 (aurora A kinase (AURKA); Log[nM] 3.5): 57%
- Aurora A % Activity Set3 (aurora A kinase (AURKA); Log[nM] 3.5): 52%
- Aurora A % Activity Set1 (aurora A kinase (AURKA); Log[nM] 4.0): 17%
- Aurora A % Activity Set2 (aurora A kinase (AURKA); Log[nM] 4.0): 16%
- Aurora A % Activity Set3 (aurora A kinase (AURKA); Log[nM] 4.0): 16%
- Aurora A % Activity Set1 (aurora A kinase (AURKA); Log[nM] 4.5): 7%
- Aurora A % Activity Set2 (aurora A kinase (AURKA); Log[nM] 4.5): 6%
- Aurora A % Activity Set3 (aurora A kinase (AURKA); Log[nM] 4.5): 7%
- Aurora A % Activity Set1 (aurora A kinase (AURKA); Log[nM] 5.0): 6%
- Aurora A % Activity Set2 (aurora A kinase (AURKA); Log[nM] 5.0): 5%
- Aurora A % Activity Set3 (aurora A kinase (AURKA); Log[nM] 5.0): 5%
SMILES: Fc1cc(Nc2ncnc3[nH]ccc23)ccc1Cl [Compound 3, N^4-(3-fluoro-4-chlorophenyl)-7H-pyrrolo[2,3-d]pyrimidine-4-amine]
